From patent US20250333733A1, “NOVEL TARGETS AGAINST OVARIAN CANCER” (UNIVERSITY OF PUERTO RICO, priority 2022, published 2025)

Legend:
[1] = tested on: OVCAR3CIS cells; assay: Colony formation assay after siRNA transfection; format: cell-based; details: single siRNA, vs NC-siRNA
Method: (§1) SiRNA ON-TARGET plus SMARTpool (a mixture of 4 siRNA as a single tube) and a negative control siRNA (NC-siRNA) (Sigma-Aldrich) were used for transfection studies. CASC10, was targeted by using two siRNAs targeting different regions of the CASC10 RNA (e.g., CASC10-siRNA (1) and CASC10-siRNA (2)). OVCAR3CIS or SKOV3ip1CIS cells were seeded into 12-well plates at 3.0×10^4 cells/mL. The next day, siRNAs were mixed with HiPerfect transfection reagent (Qiagen, Valencia, CA) at a 1:2 ratio (SIRNA: HiPerfect) in serum and antibiotic-free Opti-MEM medium (Gibco) and added to the cells. After twenty-four hours the media was replaced by regular culture media, and cells were cultured and used for further experiments. To assess siRNA transfection efficiency, cells were collected 24 hours after siRNA transfection.
OVCAR3CIS cells (3.0×10^4 cells/mL) or SKOV3ip1CIS (3.0×10^4 cells/mL) were seeded into 12-well plates. Twenty-four hours later, cells were transfected with 100 nM (final concentration) of each siRNA. […] Colonies of at least 50 cells were counted using a light microscope (CKX41: Olympus, Center Valley, PA, USA) with a total magnification of 40x. […] Optical density (OD) was measured, and percentages of cell viability were calculated after blank OD subtraction. Untreated cells were assessed as 100% cell viability. […]

[2] = tested on: CASC10; assay: RT-qPCR of CASC10 expression after siRNA transfection in OVCAR3CIS cells; format: cell-based; details: vs NC-siRNA
Method: as §1
(§2) A custom-made 384-well plate containing pre-designed forward and reverse primers was purchased from Bio-Rad (CA, USA). Total RNA was isolated from OVCAR3 and OVCAR3CIS cells using the GenElute Mammalian Total RNA Mini Kit (Millipore-Sigma, MO, USA) following the manufacturer's instructions. […] Fold-changes and cycle threshold (Ct) values were calculated by the instrument's internal software relative to OVCAR3 cells and normalized to B-actin along with controls for gDNA, PCR reaction, RT reaction, and RNA quality.

[3] = tested on: OVCAR3CIS cells; assay: Matrigel transwell invasion assay; format: cell-based; details: vs NC-siRNA
Method: Cell invasion was measured using the Matrigel transwell method. OVCAR3CIS (3.0×10^4 cells/mL) or SKOVip1CIS (3.5×10^4 cells/mL) were seeded into 10 cm Petri dishes and transfected with siRNAs. Twenty-four hours later, serum-free matrigel (BD Biosciences CA, USA) was added onto the upper chambers of 24-well plates and incubated at 37° C. for polymerization. Transfected cells were collected and resuspended in serum-free and re-seeded onto the Matrigel-coated chambers. Medium containing 10% FBS was added to the lower area of the wells, and the plates incubated for 48 hours at 37° C. The medium was removed, and cells that invaded through the matrigel fixed and stained using ProtocolHema 3 Stain Set (Fisher Scientific MI, USA). Invaded cells were microscopically counted using a digital camera to capture images at a 20× resolution. The percentage of cell invasion was calculated using the NC-SIRNA condition as 100% cell invasion.

[4] = tested on: CASC10; assay: RT-qPCR of CASC10 expression after siRNA transfection in SKOV3ip1 cells; format: cell-based, human; details: SKOV3ip1 cells as printed
Method: as §1, §2

[5] = tested on: OVCAR3CIS cells; assay: Cell viability, Alamar blue, siRNA alone or with cisplatin; format: cell-based; details: OVCAR3CIS, vs NC-siRNA
Method: OVCAR3CIS cells (3.0×10^4 cells/mL) or SKOV3ip1CIS (3.0×10^4 cells/mL) were seeded into 12-well plates. […] The next day, 400 cells (OVCAR3CIS) or 1,000 cells (SKOV3ip1CIS) were seeded into 6-well plates and incubated for seven days, fixed and stained with 0.5% crystal violet in methanol. Colonies of at least 50 cells were counted using a light microscope (CKX41: Olympus, Center Valley, PA, USA) with a total magnification of 40x. For cell viability assays, OVCAR3 and OVCAR3CIS (3.0×10^4 cells/mL) or SKOV3ip1and SKOV3ip1CIS (3.5×10^4 cells/mL) were seeded into 96-well plates, and 24 hours later, siRNA transfection was performed as described above. The next day, the transfection mix was replaced with cisplatin (CIS) (2.5 uM final concentration dissolved in regular cell culture media) and after forty-eight hours, the medium was removed, and Alamar blue dye (Invitrogen, Thermo Fisher Scientific, Eugene, OR, USA) was added following the manufacturer's instructions. Optical density (OD) was measured, and percentages of cell viability were calculated after blank OD subtraction. Untreated cells were assessed as 100% cell viability.

[6] = tested on: OVCAR3 cells; assay: Cell viability, Alamar blue, siRNA; format: cell-based; details: OVCAR3, any siRNA concentration tested, vs NC-siRNA
Method: OVCAR3CIS cells (3.0×10^4 cells/mL) or SKOV3ip1CIS (3.0×10^4 cells/mL) were seeded into 12-well plates. Twenty-four hours later, cells were transfected with 100 nM (final concentration) of each siRNA. The next day, 400 cells (OVCAR3CIS) or 1,000 cells (SKOV3ip1CIS) were seeded into 6-well plates and incubated for seven days, fixed and stained with 0.5% crystal violet in methanol. Colonies of at least 50 cells were counted using a light microscope (CKX41: Olympus, Center Valley, PA, USA) with a total magnification of 40x. For cell viability assays, OVCAR3 and OVCAR3CIS (3.0×10^4 cells/mL) or SKOV3ip1and SKOV3ip1CIS (3.5×10^4 cells/mL) were seeded into 96-well plates, and 24 hours later, siRNA transfection was performed as described above. The next day, the transfection mix was replaced with cisplatin (CIS) (2.5 uM final concentration dissolved in regular cell culture media) and after forty-eight hours, the medium was removed, and Alamar blue dye (Invitrogen, Thermo Fisher Scientific, Eugene, OR, USA) was added following the manufacturer's instructions. Optical density (OD) was measured, and percentages of cell viability were calculated after blank OD subtraction. Untreated cells were assessed as 100% cell viability.

[7] = tested on: SKOV3IP1CIS; assay: Cell cycle progression by flow cytometry; format: cell-based, human; details: 48 hours post-transfection
Method: To assess cell cycle progression, OVCAR3CIS (3.0×10^4 cells/mL) or SKOV3ip1CIS (3.5×10^4 cells/mL) were seeded into 10 cm Petri dishes and transfected with NC-siRNA or CASC10-siRNA (2). Forty-eight hours later, attached cells were collected, washed in ice-cold PBS, fixed with 70% cold ethanol, and stored at 4° C. Cells were then washed with ice-cold PBS, resuspended in propidium iodide (PI)/RNase Staining Buffer, incubated in the dark for 15 minutes at room temperature, and then analyzed by flow cytometry in BD C6 Accuri (CA, USA). Accuri's software was used to determine the percentage of cells in each cell cycle phase.

Substance: CASC10-siRNA (2): siRNA targeting CASC10 RNA, SEQ ID NO 3 and 4: 5′ GACUCUUGGAUCCAAGUUU(dT)(dT) 3′ / 5′ AAACUUGGAUCCAAGAGUC(dT)(dT) 3′ (chain 1 GACUCUUGGAUCCAAGUUUNN; chain 2 AAACUUGGAUCCAAGAGUCNN; 3' dTdT overhangs, chemistry not fully specified)
- reduction in the number of colonies [1]: 54%
- decrease of CASC10 expression [2]: 57%
- reduction of invasiveness [3]: 62%
- decrease of CASC10 relative expression [4]: 75%
- reduction of cell viability ([5]; 50 nM siRNA): 15%
- reduction of cell viability ([5]; 100 nM siRNA): 30%
- cell viability (reduced to) ([5]; siRNA combined with CIS 2.5 μM): 56%
- cell viability [6]: did not significantly reduce cell viability
- cell cycle progression [7]: cell cycle arrest in the G0/G1 to S phase
